Results: PubChem BioAssay AID256 (DTP/NCI, 2004)
“And” between values parts separate entries of the source, which are not always exact repeats. Equal entries are not always repeated. Inconclusive results and toxic doses are left out. How the source made its calls: active means survival T/C of 150% or more; inactive means T/C below 125% in these data.

Test system: CD2F1 mice, L1210 leukemia ip, survival T/C
Assay: NCI In Vivo Anticancer Drug Screen. Data for tumor model L1210 Leukemia (intraperitoneal) in CD2F1 (CDF1) mice
Details: higher = longer survival
Procedure, shortened: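 Tumor-bearing mice (transplanted tumor) were split into treated and vehicle control groups, and the measured endpoint of each treated group was divided by that of its vehicle controls.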

[1] = endpoint: mean survival time, dose: 100.0 mg/kg/injection, schedule: Q04DX003 (ip), vehicle: saline with Tween-80
[2] = endpoint: mean survival time, dose: 200.0 mg/kg/injection, schedule: Q04DX003 (ip), vehicle: saline with Tween-80
[3] = endpoint: mean survival time, dose: 400.0 mg/kg/injection, schedule: Q04DX003 (ip), vehicle: saline with Tween-80
[4] = endpoint: mean survival time, dose: 200.0 mg/kg/injection, schedule: Q01DX009 (ip), vehicle: saline with Tween-80
[5] = endpoint: mean survival time, dose: 400.0 mg/kg/injection, schedule: Q01DX009 (ip), vehicle: saline with Tween-80
[6] = endpoint: mean survival time, dose: 10.0 mg/kg/injection, schedule: Q01DX009 (ip), vehicle: saline with Tween-80
[7] = endpoint: mean survival time, dose: 100.0 mg/kg/injection, schedule: Q01DX009 (ip), vehicle: saline with Tween-80
[8] = endpoint: mean survival time, dose: 12.5 mg/kg/injection, schedule: Q01DX005 (ip), vehicle: water
[9] = endpoint: mean survival time, dose: 25.0 mg/kg/injection, schedule: Q01DX005 (ip), vehicle: water
[10] = endpoint: mean survival time, dose: 50.0 mg/kg/injection, schedule: Q01DX005 (ip), vehicle: water
[11] = endpoint: mean survival time, dose: 100.0 mg/kg/injection, schedule: Q01DX005 (ip), vehicle: water
[12] = endpoint: mean survival time, dose: 200.0 mg/kg/injection, schedule: Q01DX005 (ip), vehicle: water
[13] = endpoint: mean survival time, dose: 50.0 mg/kg/injection, schedule: Q04DX003 (ip), vehicle: saline with Tween-80
[14] = endpoint: mean survival time, dose: 25.0 mg/kg/injection, schedule: Q01DX009 (ip), vehicle: saline with Tween-80
[15] = endpoint: mean survival time, dose: 50.0 mg/kg/injection, schedule: Q01DX009 (ip), vehicle: saline with Tween-80

Measured: T/C

O=C(OC(C(=O)O)C(OC(=O)c1ccccc1)C(=O)O)c1ccccc1 (stereo not drawn) (tested in a mixture with another compound)
inactive: endpoint: mean survival time, dose: 50.0 mg/kg/injection, schedule: Q04DX002 (ip), vehicle: saline with Tween-80 92 % of control | endpoint: mean survival time, dose: 100.0 mg/kg/injection, schedule: Q01DX001 (ip), vehicle: saline with Tween-80 105 % of control | endpoint: mean survival time, dose: 100.0 mg/kg/injection, schedule: Q04DX002 (ip), vehicle: saline with Tween-80 106 % of control | [1] 101 % of control | endpoint: mean survival time, dose: 200.0 mg/kg/injection, schedule: Q01DX001 (ip), vehicle: saline with Tween-80 100 % of control | endpoint: mean survival time, dose: 200.0 mg/kg/injection, schedule: Q04DX002 (ip), vehicle: saline with Tween-80 95 % of control | [2] 106 % of control | endpoint: mean survival time, dose: 400.0 mg/kg/injection, schedule: Q01DX001 (ip), vehicle: saline with Tween-80 97 % of control | [3] 98 % of control

COc1cc(/C=C/c2nc3ccccc3nc2/C=C/c2cc(OC)c(OC)c(OC)c2)cc(OC)c1OC
inactive: [4] 94 % of control | [5] 100 % of control | [3] 93 % of control

O=C1C2(Cl)C(Cl)=C(Cl)C1(Cl)C1(Cl)C(Cl)=C(Cl)C(=O)C21Cl (stereo not drawn)
inactive: [6] 94 % of control | endpoint: mean survival time, dose: 20.0 mg/kg/injection, schedule: Q01DX009 (ip), vehicle: saline with Tween-80 94 % of control | endpoint: mean survival time, dose: 40.0 mg/kg/injection, schedule: Q01DX009 (ip), vehicle: saline with Tween-80 92 % of control

O=C(c1ccccc1)C(Br)C(C(=O)O)c1ccccc1 (stereo not drawn)
inactive: [1] 101 % of control | [2] 95 % of control | [3] 95 % of control

O.O.O=C(O)C(O)C(O)C(OC1OC(CO)C(O)C(O)C1O)C(O)CO.O=C(O)C(O)C(O)C(OC1OC(CO)C(O)C(O)C1O)C(O)CO.[NH-]C1CCCCC1[NH-].[Pt+2] (stereo not drawn)
inactive: endpoint: median survival time, dose: 3.12 mg/kg/injection, schedule: Q04DX003 (ip), vehicle: saline 100 % of control | endpoint: median survival time, dose: 6.25 mg/kg/injection, schedule: Q04DX003 (ip), vehicle: saline 100 % of control | endpoint: median survival time, dose: 12.5 mg/kg/injection, schedule: Q04DX003 (ip), vehicle: saline 102 % of control | endpoint: median survival time, dose: 25.0 mg/kg/injection, schedule: Q04DX003 (ip), vehicle: saline 101 % of control | endpoint: median survival time, dose: 50.0 mg/kg/injection, schedule: Q04DX003 (ip), vehicle: saline 98 % of control | endpoint: median survival time, dose: 100.0 mg/kg/injection, schedule: Q04DX003 (ip), vehicle: saline 101 % of control | endpoint: median survival time, dose: 200.0 mg/kg/injection, schedule: Q04DX003 (ip), vehicle: saline 112 % of control

CN(C)C=C1C(=O)NC(=O)NC1=O
inactive: endpoint: mean survival time, dose: 100.0 mg/kg/injection, schedule: Q01DX001 (ip), vehicle: saline 91 % of control | endpoint: mean survival time, dose: 200.0 mg/kg/injection, schedule: Q01DX001 (ip), vehicle: saline 87 % of control

Cc1ccc(C(=O)c2cnc(C)n2Cc2ccccc2)cc1
inactive: [7] 92 % of control | [4] 92 % of control | [5] 97 % of control

Nc1ccn(C2OC3COC2C3O)c(=O)n1 (stereo not drawn)
inactive: [8] 101 % of control | [9] 101 % of control | [10] 102 % of control | [11] 101 % of control | [12] 107 % of control

CCCCCCCCOC(=O)C12Oc3ccc(-c4ccc5c(c4O)C(O)=C4C(=O)CC(C)C(O)C4(C(=O)OCCCCCCCC)O5)c(O)c3C(O)=C1C(=O)CC(C)C2O (stereo not drawn)
inactive: endpoint: mean survival time, dose: 2.5 mg/kg/injection, schedule: Q01DX009 (ip), vehicle: saline with Tween-80 97 % of control | endpoint: mean survival time, dose: 5.0 mg/kg/injection, schedule: Q01DX009 (ip), vehicle: saline with Tween-80 97 % of control | [6] 97 % of control

Cc1cc(C(O)CNCCn2cnc3c2c(=O)n(C)c(=O)n3C)ccc1O (stereo not drawn)
inactive: [8] 103 % of control | [9] 100 % of control | [10] 97 % of control | [11] 100 % of control | [12] 100 % of control

CCOc1ccc([N+](=O)[O-])cc1[N+](=O)[O-]
inactive: endpoint: mean survival time, dose: 25.0 mg/kg/injection, schedule: Q04DX003 (ip), vehicle: saline with Tween-80 93 % of control | [13] 98 % of control | [1] 94 % of control

ClCCN(CCCl)c1ccc(CCCCN2CCOCC2)cc1
inactive: endpoint: mean survival time, dose: 10.0 mg/kg/injection, schedule: Q01DX009 (ip), vehicle: saline 119 % of control | endpoint: mean survival time, dose: 40.0 mg/kg/injection, schedule: Q01DX009 (ip), vehicle: saline 103 % of control

Cc1oc2c(C)c3oc(=O)cc(C)c3cc2c1CCl
inactive: endpoint: mean survival time, dose: 12.5 mg/kg/injection, schedule: Q01DX009 (ip), vehicle: saline with Tween-80 101 % of control and 105 % of control | [14] 96 % of control and 105 % of control | [15] 96 % of control and 108 % of control | [7] 109 % of control | [4] 91 % of control

Clc1ccc2nc(C(Cl)(Cl)Cl)nc(NCCN3CCCCC3)c2c1
inactive: [15] 89 % of control | [7] 113 % of control | [4] 97 % of control | [2] 91 % of control

COC1=C(C)C(=O)c2c(c(COC(N)=O)c3n2CCC3OC(N)=O)C1=O (stereo not drawn)
inactive: endpoint: mean survival time, dose: 1.25 mg/kg/injection, schedule: Q01DX001 (ip), vehicle: distilled water + Tween-80 108 % of control | endpoint: mean survival time, dose: 1.5 mg/kg/injection, schedule: Q01DX001 (ip), vehicle: distilled water + Tween-80 114 % of control | endpoint: mean survival time, dose: 2.5 mg/kg/injection, schedule: Q01DX001 (ip), vehicle: distilled water + Tween-80 120 % of control | endpoint: mean survival time, dose: 3.0 mg/kg/injection, schedule: Q01DX001 (ip), vehicle: distilled water + Tween-80 118 % of control | endpoint: mean survival time, dose: 5.0 mg/kg/injection, schedule: Q01DX001 (ip), vehicle: distilled water + Tween-80 117 % of control | endpoint: mean survival time, dose: 6.0 mg/kg/injection, schedule: Q01DX001 (ip), vehicle: distilled water + Tween-80 116 % of control | endpoint: mean survival time, dose: 10.0 mg/kg/injection, schedule: Q01DX001 (ip), vehicle: distilled water + Tween-80 115 % of control | endpoint: mean survival time, dose: 12.0 mg/kg/injection, schedule: Q01DX001 (ip), vehicle: distilled water + Tween-80 122 % of control

CSC(=O)NC(=O)c1ccccc1
inactive: [1] 100 % of control | [2] 103 % of control | [3] 105 % of control

C=CCNC(=S)NCCO
inactive: [15] 97 % of control | [13] 111 % of control | [7] 100 % of control | [1] 103 % of control | [4] 94 % of control | [2] 103 % of control

COC(=O)Nc1cccc(OC(=O)NC(C)(C)CC(C)(C)C)c1
inactive: [14] 101 % of control | [15] 101 % of control | [7] 97 % of control

CC(CCOP(=O)(N(C)C)N(CCCl)CCCl)OCc1ccccc1 (stereo not drawn)
inactive: endpoint: mean survival time, dose: 25.0 mg/kg/injection, schedule: Q01DX001 (ip), vehicle: other 101 % of control | endpoint: mean survival time, dose: 50.0 mg/kg/injection, schedule: Q01DX001 (ip), vehicle: other 102 % of control | endpoint: mean survival time, dose: 100.0 mg/kg/injection, schedule: Q01DX001 (ip), vehicle: other 98 % of control | endpoint: mean survival time, dose: 200.0 mg/kg/injection, schedule: Q01DX001 (ip), vehicle: other 87 % of control | endpoint: mean survival time, dose: 400.0 mg/kg/injection, schedule: Q01DX001 (ip), vehicle: other 95 % of control

O=C1C=C(O)c2ccccc2C1=O.[Ag]
inactive: endpoint: mean survival time, dose: 12.5 mg/kg/injection, schedule: Q01DX001 (ip), vehicle: saline with Tween-80 97 % of control | endpoint: mean survival time, dose: 25.0 mg/kg/injection, schedule: Q01DX001 (ip), vehicle: saline with Tween-80 93 % of control

O=C(Nc1ccccc1)Nc1ccc(Cl)c(Cl)c1
inactive: endpoint: mean survival time, dose: 100.0 mg/kg/injection, schedule: Q04DX003 (ip), vehicle: acetone 98 % of control | endpoint: mean survival time, dose: 200.0 mg/kg/injection, schedule: Q04DX003 (ip), vehicle: acetone 101 % of control | endpoint: mean survival time, dose: 400.0 mg/kg/injection, schedule: Q04DX003 (ip), vehicle: acetone 106 % of control

c1ccc2c(c1)[As]=c1ccccc1=[As]2 (stereo not drawn)
inactive: endpoint: median survival time, dose: 1.5 mg/kg/injection, schedule: Q01DX009 (ip), vehicle: saline with Tween-80 108 % of control | endpoint: median survival time, dose: 3.0 mg/kg/injection, schedule: Q01DX009 (ip), vehicle: saline with Tween-80 101 % of control | endpoint: median survival time, dose: 6.0 mg/kg/injection, schedule: Q01DX009 (ip), vehicle: saline with Tween-80 102 % of control and 104 % of control | endpoint: median survival time, dose: 12.0 mg/kg/injection, schedule: Q01DX009 (ip), vehicle: saline with Tween-80 113 % of control and 109 % of control | endpoint: median survival time, dose: 24.0 mg/kg/injection, schedule: Q01DX009 (ip), vehicle: saline with Tween-80 106 % of control | endpoint: median survival time, dose: 48.0 mg/kg/injection, schedule: Q01DX009 (ip), vehicle: saline with Tween-80 100 % of control
